Assay results published in US20080124410A1, “Use Of Lavender Oil For The Prophylaxis And Treatment Of Neurasthenia, Somatization Disorders And Other Stress-Associated Diseases” (priority 2004, published 2008).

System: rats
Assay: Forced Swimm Stress model, immobilization period
Type: in vivo
Conditions: 30 mg/kg perorally, once a day for nine days
Protocol: The stress-reducing effects of lavender oil was tested in rats by the so-called “Forced Swimm Stress” model (R. D. Porsolt et al. (1978), Eur. J. Pharmacol. 47, 379-391). The stress reaction experimentally elicited by this test in rats is a recognized method for testing stress-induced behaviour. The principle of the test system used involves that rats being put into a water-filled glass cylinder which they can not leave independently, fall into a still state after a short period of swimming (immobilization period). This immobility is interpreted as a reaction to recognizing the hopelessness of the situation (cf. Example 2).
In order to test the stress-reducing effects of lavender oil, rats were treated over a period of nine days in total with differently high dosages of lavender oil according to European Pharmacopoeia, edition 4 (WS® 1265) once a day. For comparison purposes some animals were treated either with the tricyclic antidepressive agent imipramine used in stress therapy or with a control solution without an active ingredient. On the seventh day of the treatment, the animals were placed into the water-filled glass cylinder for 15 minutes for familiarization purposes. At the final day of the treatment, the animals were placed into the graduated cylinder again for a period of 5 minutes and the period of immobility was measured as a measure of the stress reaction.

CN(C)CCCN1c2ccccc2CCc2ccccc21 [imipramine]
immobilization period: 48 ± 6 s | inhibition (versus control): 67%
